The test system of the test is gp60-mediated caveolar transcytosis. As to the kind of experiment: Inhibition of transport of paclitaxel from ABX across endothelial monolayers. It is filed as cell-based, human. The following applies: FIG. 4. The source says:
Transport was dependent on albumin.

Take `CCN1C(=O)C=CC1=O` [NEM]: the “effect on transport of paclitaxel from ABX across endothelial monolayers” value is “inhibited”. With β-methyl cyclodextrin [BMC], the “effect on transport of paclitaxel from ABX across endothelial monolayers” value is “inhibited”.

The values are drawn from patent US9671406B2, “SPARC and methods of use thereof” (Abraxis BioScience, LLC, priority 2006, dated 2017).
